The values below are quoted from earlier work in article PMC7904743, “WIDOCK: a reactive docking protocol for virtual screening of covalent inhibitors” (Journal of Computer-Aided Molecular Design, 2021).

One data set deals with OTUB2. Particulars: experimental actives if % labeling higher than 50%, cited from earlier work.
A further data set deals with NUDT7. As to conditions: protein labeling at 200 μM; experimental actives if % labeling higher than 50%; cited from earlier work.
For data set [1] the following is noted: thiol reactivity, cited from earlier work.
The mark [2] stands for this setting: natural log of average rate constant k.
[3] abbreviates: natural logarithm of average rate constant.
The mark [4] stands for this setting: natural log of average rate constant.
Setting [5] is: natural log of average kinetic rate constant.

The structures appear in SMILES notation. Like-named read-outs stand apart in the source and are kept apart here.

As for `CC(NC(=O)CCl)c1ccccc1Br` (centres unmarked) [PCM-0102256, CC(NC(=O)CCl)c1ccccc1Br], the OTUB2 % labeling with OTUB2 is on record as 29%. In addition, the NUDT7 % labeling with NUDT7 is on record as 19%. Also, the “ln(avg k)” value in data set [1] (setting [2]) and in data set [1] (setting [3]) was -16.021 each time.

On to `O=C(CCl)NC1C2CC3CC(C2)CC1C3` (centres unmarked) [PCM-0102404, O=C(CCl)NC1C2CC3CC(C2)CC1C3], for which the OTUB2 % labeling in the data set with OTUB2 is on record as 33%. The NUDT7 % labeling with NUDT7 was 0%. The “ln(avg k)” value in data set [1] (setting [2]) and in data set [1] (setting [3]) was -16.228 in each case.

For the compound `CC(=O)c1ccc(N2CCN(C(=O)CCl)CC2)c(F)c1` [PCM-0102273, CC(=O)c1ccc(N2CCN(C(=O)CCl)CC2)c(F)c1], the OTUB2 % labeling in the data set with OTUB2 is listed as 0%. In addition, the NUDT7 % labeling with NUDT7 was 20%. The “ln(avg k)” value in data set [1] (setting [2]) and in data set [1] (setting [3]) was -15.374 in each case.

Turning to `CC(c1ccccc1)N1CCN(C(=O)CCl)CC1` (centres unmarked) [PCM-0102710, CC(c1ccccc1)N1CCN(C(=O)CCl)CC1], the OTUB2 % labeling in the data set with OTUB2 is 12%. The NUDT7 % labeling with NUDT7 is on record as 0%. Further, the “ln(avg k)” value in data set [1] (setting [4]) and in data set [1] (setting [3]) was -15.723 in each case.

As for `Cc1ccc(C(C)NC(=O)CCl)cc1C` (centres unmarked) [PCM-0102270, Cc1ccc(C(C)NC(=O)CCl)cc1C], in the data set on OTUB2, the OTUB2 % labeling is 51%. For the same compound, the NUDT7 % labeling in the data set on NUDT7 is 0%. Also, the “ln(avg k)” value in data set [1] (setting [2]) and in data set [1] (setting [3]) was -16.558 each time.

`CN(C)C(=O)c1ccc(NC(=O)CCl)cc1` [PCM-0102877, CN(C)C(=O)c1ccc(NC(=O)CCl)cc1]: the OTUB2 % labeling in the data set with OTUB2 (OTUB2 protein labeling) is 0%. In the data set on NUDT7, the NUDT7 % labeling is 0%. Also, the “ln(avg k)” value in data set [1] (setting [5]) and in data set [1] (setting [4]) was -15.682 in each case.

In the case of `Cc1ccc([N+](=O)[O-])c(NC(=O)CCl)c1C` [PCM-0102511, Cc1ccc([N+](=O)[O-])c(NC(=O)CCl)c1C], the OTUB2 % labeling in the data set with OTUB2 is given as 7%. The NUDT7 % labeling in the data set with NUDT7 was 15%. For the same compound, the “ln(avg k)” value in data set [1] (setting [2]) and in data set [1] (setting [3]) was -16.700 in each case.

On to `O=C(CCl)Nc1ccc2c(c1)CCC2` [PCM-0102662, O=C(CCl)Nc1ccc2c(c1)CCC2], for which, in the data set with OTUB2, the OTUB2 % labeling was 14%. Besides, the NUDT7 % labeling in the data set with NUDT7 is listed as 12%. Besides, the “ln(avg k)” value in data set [1] (setting [2]) and in data set [1] (setting [3]) was -16.202 throughout.

On to `CC1CCCC(C)N1C(=O)CCl` (centres unmarked) [PCM-0102616, CC1CCCC(C)N1C(=O)CCl], for which the OTUB2 % labeling with OTUB2 is listed as 0%. In addition, the NUDT7 % labeling with NUDT7 is given as 0%. The “ln(avg k)” value in data set [1] (setting [2]) and in data set [1] (setting [3]) was -15.945 in each case.

On to `O=C(CCl)N1CCN(c2ccc(Cl)cc2[N+](=O)[O-])CC1` [PCM-0102125, O=C(CCl)N1CCN(c2ccc(Cl)cc2[N+](=O)[O-])CC1], for which, in the data set with OTUB2, the OTUB2 % labeling was 0%. The NUDT7 % labeling in the data set with NUDT7 is 29%. In addition, the “ln(avg k)” value in data set [1] (setting [2]) and in data set [1] (setting [3]) was -15.501 throughout.

As to `N#Cc1ccc(NC(=O)CCl)cc1` [PCM-0102875, N#Cc1ccc(NC(=O)CCl)cc1], the OTUB2 % labeling in the data set on OTUB2 (OTUB2 protein labeling) is reported as 8%. In the data set with NUDT7, the NUDT7 % labeling is 14%. The “ln(avg k)” value in data set [1] (setting [5]) and in data set [1] (setting [4]) was -15.678 in each case.

For the compound `CC(NC(=O)CCl)C1CC1` (centres unmarked) [PCM-0102157, CC(NC(=O)CCl)C1CC1], in the data set with OTUB2, the OTUB2 % labeling is 10%. The NUDT7 % labeling in the data set with NUDT7 was 0%. In addition, the “ln(avg k)” value in data set [1] (setting [2]) and in data set [1] (setting [3]) was -17.112 each time.

Take `O=C(CCl)Nc1ccc(C(=O)O)cc1` [PCM-0102400, O=C(CCl)Nc1ccc(C(=O)O)cc1]: in the data set with OTUB2, the OTUB2 % labeling is on record as 0%. In the data set on NUDT7, the NUDT7 % labeling is reported as 0%. Further, the “ln(avg k)” value in data set [1] (setting [2]) and in data set [1] (setting [3]) was -16.430 in each case.

Regarding `CN(C(=O)CCl)C1=CCCC1` [PCM-0102869, CN(C(=O)CCl)C1=CCCC1], the OTUB2 % labeling in the data set on OTUB2 (OTUB2 protein labeling) is given as 0%. Further, the NUDT7 % labeling in the data set on NUDT7 is recorded as 0%. Also, the “ln(avg k)” value in data set [1] (setting [5]) and in data set [1] (setting [4]) was -17.213 in each case.
